Data on eight molecules can be found in patent US8492379B2, “Translocator protein ligands” (The University of Sydney, priority 2007, dated 2013).

Structures are written as SMILES.

One experiment concerns the target TSPO (Rattus norvegicus (Rat), UniProt P16257). The experiment in a line: In vitro binding affinity, 3H-PK11195 displacement in kidney mitochondria. Conditions: 0.6 nM 3H-PK11195, mitochondria from kidneys of male Wistar rats, 90 min at 4° C. How it is done: 3H-PK11195 (specific activity 322 GBq/mmol) and 3H-Ro 15-1788 (specific activity 311 GBq/mmol) were purchased from Dupont-New England Nuclear. For binding studies, mitochondria were prepared as described in Trapani G., et al. J Med Chem. 1997; 40:3109-3118, with minor modifications as described here, from the kidneys of male Wistar rats killed by cervical dislocation. The kidneys were homogenized in 20 volumes of ice-cold 50 mM Tris-HCl (pH 7.4), 0.32 M sucrose, and 1 mM ethylenediaminetetraacetic acid (buffer A) containing protease inhibitors (benzamidine at […], bacitracin at […], and soybean trypsin inhibitor at […]) with a Teflon (DuPont) pestle in a glass homogenizer and centrifuged at 600 g for 10 min at 4° C. The resulting supernatant was centrifuged at 10,000 g for 10 min at 4° C. The pellet was suspended in 20 volumes of ice cold buffer A and centrifuged at 10,000 g for 10 min at 4° C. The crude mitochondrial pellet was frozen at −20° C. until the time of the assay or incubated with 0.6 nM 3H-PK11195 in 50 mM Tris-HCl (pH 7.4) (buffer B) with a range of concentrations of the tested compounds (0.1 nM-10 mM) in a total volume of 0.5 mL for 90 min at 4° C. The incubation was terminated by dilution to 5 mL with icecold buffer B; this step was followed immediately by rapid filtration through glass fiber Whatman GF/C filters. The filters were washed (2.5 mL) with buffer B, and the amount of radioactivity retained on the filters was determined with a Packard 1600 TR liquid scintillation counter at 66% efficiency. Nonspecific binding was estimated for each sample in the presence of unlabeled 1 mM PK11195. The 50% inhibitory concentrations were determined, and the dissociation constant (Ki) values were derived according to a previously derived equation (Cheng Y., et al. Biochem Pharmacol. 1973; 22:3099-3108). The protein concentration was estimated by the method of Lowry et al. (J Biol Chem. 1951; 193:265-275) with bovine serum albumin (Sigma-Aldrich) as the standard.

The target in the next experiment is TSPO in microglia (Rattus norvegicus (Rat), UniProt P16257). Conditions: quinolinic acid-injected rat striatum; cited from earlier work.
Sequence of TSPO in microglia (P16257 whole entry): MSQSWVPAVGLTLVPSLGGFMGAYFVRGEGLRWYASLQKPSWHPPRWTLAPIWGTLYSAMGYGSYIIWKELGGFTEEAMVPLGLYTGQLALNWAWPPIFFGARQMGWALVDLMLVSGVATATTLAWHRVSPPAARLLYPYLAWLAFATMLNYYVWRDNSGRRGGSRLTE

Sequence of TSPO (P16257 whole entry, looked up): as the sequence (P16257 whole entry) above

Regarding `CCN(CC)C(=O)C(Oc1ccc(Cl)cc1-n1cccc1)c1ccc(OC)cc1` (centres unmarked), the Ki on TSPO was 5.7 nM.

Take `CCN(CC)C(=O)C(Oc1ccccc1-n1cccc1)c1ccc(OC)cc1` (centres unmarked): at TSPO, the affinity, expressed as Ki, was 5 nM.

With `CCC(C)N(C)C(=O)c1cc2ccccc2c(-c2ccccc2Cl)n1` (centres unmarked) [PK 11195], the “effect on microglial activation and neuronal death” value on TSPO in microglia is “reduces microglial activation and neuronal death”.

With `CCN(CC)C(=O)Cc1c(-c2ccc(Cl)cc2)nc2c(C)cc(C)nn12`, affinity on TSPO was put at a Ki of 0.45 nM.

As to `CCN(CC)C(=O)C(Oc1cccnc1-n1cccc1)c1ccc(OC)cc1` (centres unmarked), the Ki at TSPO came to 4 nM.

`CCN(CC)C(=O)Cc1c(-c2ccc(C)cc2)nc2c(C)cc(C)nn12`: the Ki on TSPO was determined as 0.46 nM.

The molecule `CCN(CC)C(=O)Cc1c(-c2ccc(F)cc2)nc2c(C)cc(C)nn12` displayed a Ki at TSPO of 2.4 nM.

For the molecule `CCN(CC)C(=O)Cc1c(-c2ccc(Br)cc2)nc2c(C)cc(C)nn12`, at TSPO, the affinity, expressed as Ki, was 0.97 nM. This Ki lies about 2.5-fold lower than the previous one.

The term Ki denotes the dissociation constant of the complex between target and ligand, obtained from inhibition or displacement. Low readings indicate a stronger hold on the target, high ones a looser hold on the target.
